Literature values, collected in patent US20030004236A1, “Magnetic resonance imaging agents for detection and delivery of therapeutic agents and detection of physiological substances” (priority 2001, published 2003).

Settings: thermodynamic stability of the Gd(III) chelate; background section

Row | stability constant (K), also known as formation constant, logK | SMILES
1 | 22.4 | O=C([O-])CN(CCN(CC(=O)[O-])CC(=O)[O-])CCN(CC(=O)[O-])CC(=O)[O-].[Gd+3] [Gd(DTPA)^2−]
2 | 28.5 | O=C([O-])CN1CCN(CC(=O)[O-])CCN(CC(=O)O)CCN(CC(=O)[O-])CC1.[Gd+3] [Gd-DOTA]
